According to PMC5563081, “Modulating Protein-Protein Interactions of the Mitotic Polo-like Kinases to Target Mutant KRAS” (Cell Chemical Biology, 2017):
Like-named read-outs stand apart in the source and are kept apart here.

Columns and labels:
HCT116 wt = test: Viability of drug-sensitive parental HCT116 cells; assay type: cell-based; conditions: Homo sapiens, HCT-116, 72 h
Procedure: (§1) Viability is represented as percentage survival normalised to DMSO control. […] PCR reactions were carried out using Amplitaq Gold polymerase (Applied Biosystems N8080241) with a 25-cycle programme. […] Prepared samples were submitted for next generation sequencing using MiSeq Nano run with Nextera XT library preparation. Sequencing and subsequent bioinformatics were performed by Cambridge Genomic Services (University Of Cambridge).

HCT116 KRAS G13D cells = test: Development of drug resistance under continuous treatment; assay type: cell-based, human; conditions: continuous treatment at 5x GI50
Procedure: HCT116 wild-type cells (Horizon Discovery Ltd.) cultured in McCoy's 5A (Life Technologies #26600) medium supplemented with 10% Foetal Calf Serum (Life Technologies #10270) were treated on three occasions with titrations of the PLK1 ATP-competitive inhibitor BI 2536 (Selleckchem #S1109) or Poloppin in order to determine the 2.5x GI50, 3x GI50 and 5x GI50 values for each compound required to initiate the development of resistance. Cells were subsequently treated with 2.5x GI50, 3x GI50 and 5x GI50 concentrations of either compound, changing media and compound every three to four days until resistant colonies emerged or no viable cells remained. Single cell clones were isolated from cells resistant to 5x GI50 BI 2536. Equivalent experiments using 3x GI50 or 2.5x GI50 doses of Poloppin or BI2536 yielded identical results (data not shown). BI 2536-resistant clones (HCT116 BI 2536-Res. Clones) were treated with BI2536 or Poloppin, alongside drug-sensitive parental HCT116 cells (HCT116 wt), and viability was assessed after 72 h. Viability is represented as percentage survival normalised to DMSO control. […]

[1] = tested on: HCT116 BI 2536-Res. Clones; test: Viability of BI 2536-resistant HCT116 clones; assay type: cell-based, human; conditions: Homo sapiens, HCT-116; BI2536-Res. (Mean), 72 h; read-out: GI50
Procedure: as §1

Panc-1 = test: Cell viability (SRB), Panc-1; assay type: cell-based, human; conditions: Panc-1, c-MET inhibitor alone, SRB 72 h, Figure S5C, read-out: EC50, % survival
Procedure: SW48 Parental, SW48 G12D, Panc-1, HPAF-II, Panc 02.03 and Panc 05.04 cell lines were seeded overnight at 5000 cells per well in a 96 well plate in recommended media (ATCC). Compounds were added the following day and viability was measured at 72h using the sulforhodamine B (SRB) colorimetric assay as follows. Cells were fixed by replacing media with 1% v/v Trichloroacetic Acid (TCA) (Sigma-Aldrich) at 4°C and incubated for 1h also at 4°C. Wells were washed thoroughly with copious amounts of deionised water before staining with Sulforhodamine B (SRB) (Sigma-Aldrich) solution (0.057% w/v in 1% v/v Acetic Acid (VWR)) for 30 min. Stain was aspirated and wells washed with several changes of 1% v/v Acetic Acid until unbound stain was removed, before air-drying. Bound stain was solubilized with 100μl / well 10mM Tris (pH 8.0) (Trizma Base (121.1) Sigma-Aldrich) with agitation for 10 min. Fluorescence intensity was recorded at Ex540nm / Em590nm using a BMG Pherastar Plus plate reader ([Vichai and Kirtikara, 2006]).
Pancreatic organoids were extracted and cultured as detailed above ([Boj et al., 2015]). In brief, pancreatic organoids were seeded at 600 cells per well in a 96 well plate and allowed to grow for 7 days with media replenishment on the 3rd day. Full-grown organoids were then treated with compounds for 72h and viability determined using CellTitre Glo 3D assay (Promega). For viability assays with c-MET siRNA, cells were reverse transfected in a 6 cm dish using Dharmafect 1 (GE Dharmacon) per manufacturer’s instructions. On the following day, cells were trypsinised and plated onto 96 well plates or 6 well plates. The 96 well plates were treated with a dose range of compounds or DMSO, and viability was determined via SRB colorimetric assay. Cells in the 6 well plates were collected at the end of experiment to corroborate knockdown of c-MET by Western blotting.
Cells were reverse-transfected with 50nM (SW48 parental, SW48 KRAS G12D and Panc-1) or 25nM (HeLa Flp-In T-REx parental cells) siRNA using Dharmafect (GE Dharmacon) as manufacturer’s recommendations. Where transfected cells were subsequently treated with compounds, the cells were allowed to settle overnight and then treated with compound at the indicated concentration the following day. Viability was assessed after 72 hrs, with the SRB colorimetric assay. Knockdown efficiencies were determined by Western blot or RT-qPCR. Oligos against the following target sequences were used. c-MET (Qiagen): […], […], […]. PLK1 (Qiagen): […]. PLK2 (SMARTpool; Dharmacon): ACACAGAAGGAGAACGAUA, CAUCAAUGAGGAUAGGAUA, CUGCCUAGUGUUACUGAUA, ACAAAGUCUACGCCGCAAA. PLK3 (SMARTpool; Dharmacon): GCGAGAAGAUCCUAAAUGA, GCAAGUGGGUUGACUACUC, GCACAUCCGUUGGCCAUCA, GACCUCAAGUUGGGAAAUU. PLK4 (Qiagen): […].

HeLa cells = test: Mitotic index assay in HeLa cells; assay type: cell-based, human; conditions: for EC50: Homo sapiens, HeLa, Figure 5A, read-out: MI EC50 (cellular assay for mitotic arrest)
Procedure: Cells were plated at 10 000/well in 96-well plates and incubated overnight. The following day compound stocks in DMSO were diluted in medium then added to cells with a maximum final DMSO concentration on cells of 0.2%. […] Cells were permeabilised with 0.1% Triton X-100 then incubated with anti-phospho-histone H3 (Ser10) antibody (Abcam ab5176). The cells were washed with PBS then incubated with AlexaFluor 488 labelled goat anti-rabbit IgG (Invitrogen A11034) in the presence of 4ug/ml Hoechst 33342 (Invitrogen H3570). Cells were washed in PBS then imaged on an Arrayscan VTi HCS instrument (Thermo Fisher) using the Target Activation V4 Bioapplication. A user-defined threshold was applied to identify mitotic cells based on the intensity of phospho-histone H3 staining.

[2] = target: T1, NanoLuc-PLK1 fusion protein (Homo sapiens, UniProt P53350); test: NanoLuc thermal shift assay; assay type: cell-based; conditions: compound at 100 μM
T1 construct: NanoLuc fused to the N-termini of full-length human PLK1, PLK2, PLK3, PLK4 or p38α MAPK; expressed in transfected cells; host or cells: HeLa, transient, digitonin-permeabilised
Procedure: (§2) HeLa cells were transfected with plasmids encoding NanoLuc fused to the N-termini of full-length human PLK1, PLK2, PLK3, PLK4 or p38α MAPK. Twenty-four h after transfection, the thermal stability of the fusion proteins was tested using a modified version of the assay protocol supplied by Promega. Briefly, cells were harvested by tyrpsinisation and centrifugation, counted, and resuspended to 200,000 cells/ml in 3mls of serum-free OptiMEM media. Cells were then permeabilised using with 50ug/ml digitonin in DMSO for 5 min and incubated with test compounds at 100uM, plus protease inhibitor cocktail (Promega G6521), in a final concentration of 5% DMSO for 1 h at 37°C. After incubation, 100 μl/well of cells were aliquoted into a 96-well, thin-walled PCR plate and then heated for 3 minutes using a pre-warmed MJ Tetrad DNA Engine set to run a temperature gradient of 42 to 66°C. The plates were then cooled to room temperature for 10 min, and then 80μl of each sample was transferred to a white-walled 96-well Nunc plate before NanoBRET™ NanoGlo Substrate diluted in Opti-MEM was added. NanoLuc enzyme activity was read out within 10 min using a BMG Clariostar plate reader.
(§3) Nanoluciferase enzyme activity of PLK1- or PLK4-Nanoluc fusion protein was analysed using GraphPad Prism. Data were normalised as follows: (treatment A RLU value at X°C temp/treatment A RLU value at 42°C temp) x 100. Using the Boltzmann sigmoidal equation, a curve was then fitted to the normalised data. From this non-linear fit, a V50 value was generated, which in this context represents the aggregation onset temperature (Tagg), at which 50% of the PLK1- or PLK4-Nanoluc fusion protein has aggregated.

[3] = target: T2, NanoLuc-PLK4 fusion protein (Homo sapiens, UniProt O00444); test: NanoLuc thermal shift assay; assay type: cell-based; conditions: compound at 100 μM
T2 construct: NanoLuc fused to the N-termini of full-length human PLK1, PLK2, PLK3, PLK4 or p38α MAPK; expressed in transfected cells; host or cells: HeLa, transient, digitonin-permeabilised
T2 sequence (O00444 1-970): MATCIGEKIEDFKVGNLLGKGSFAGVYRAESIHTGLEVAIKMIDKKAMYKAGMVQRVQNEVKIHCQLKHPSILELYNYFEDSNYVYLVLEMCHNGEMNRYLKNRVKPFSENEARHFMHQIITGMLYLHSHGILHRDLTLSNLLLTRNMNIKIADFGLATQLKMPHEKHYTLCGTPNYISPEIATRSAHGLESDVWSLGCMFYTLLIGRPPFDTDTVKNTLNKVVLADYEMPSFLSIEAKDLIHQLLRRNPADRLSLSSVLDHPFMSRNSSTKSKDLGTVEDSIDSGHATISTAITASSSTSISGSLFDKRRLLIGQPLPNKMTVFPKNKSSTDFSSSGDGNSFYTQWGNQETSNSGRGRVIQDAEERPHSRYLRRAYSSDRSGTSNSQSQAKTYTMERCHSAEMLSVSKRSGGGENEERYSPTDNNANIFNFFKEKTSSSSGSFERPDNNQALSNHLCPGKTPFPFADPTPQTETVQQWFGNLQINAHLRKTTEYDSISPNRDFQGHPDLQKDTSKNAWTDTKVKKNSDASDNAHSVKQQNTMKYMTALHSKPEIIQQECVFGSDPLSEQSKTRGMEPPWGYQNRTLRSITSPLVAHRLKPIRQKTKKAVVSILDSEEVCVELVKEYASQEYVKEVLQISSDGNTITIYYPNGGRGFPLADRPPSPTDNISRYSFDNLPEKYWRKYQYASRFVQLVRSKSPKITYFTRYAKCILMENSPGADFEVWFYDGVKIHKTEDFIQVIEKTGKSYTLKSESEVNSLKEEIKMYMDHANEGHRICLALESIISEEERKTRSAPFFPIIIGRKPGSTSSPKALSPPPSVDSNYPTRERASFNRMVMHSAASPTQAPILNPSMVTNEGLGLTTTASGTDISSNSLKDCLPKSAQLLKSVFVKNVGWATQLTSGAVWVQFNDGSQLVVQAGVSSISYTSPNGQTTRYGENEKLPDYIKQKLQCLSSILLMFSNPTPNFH
Procedure: as §2, §3

[4] = target: T3, PLK1-PBD(345-603), Polo-box domain of human Polo-like kinase 1 (human, UniProt P53350 345-603); test: fluorescence polarisation; competition format: TAMRA-labelled phosphopeptide 10 nM, PBD 84 nM (2.5 ng/ul), PBS pH 7.4 plus 0.03% tween; compound and PBD incubated together at 22 C for 1 hour before the peptide was added; same procedure for PLK2 PBD with its own peptide; conditions: both partners purified
T3 construct: Polo-like kinase 1 (PLK1), human, Polo-box domain, residues 345-603; also called PLK1 PBD (aa345-603); PBDaa345-603; source: E. coli C41, purified (GST-Sepharose column, cleaved on column with PreScission protease, gel chromatography)
T3 sequence (P53350 345-603): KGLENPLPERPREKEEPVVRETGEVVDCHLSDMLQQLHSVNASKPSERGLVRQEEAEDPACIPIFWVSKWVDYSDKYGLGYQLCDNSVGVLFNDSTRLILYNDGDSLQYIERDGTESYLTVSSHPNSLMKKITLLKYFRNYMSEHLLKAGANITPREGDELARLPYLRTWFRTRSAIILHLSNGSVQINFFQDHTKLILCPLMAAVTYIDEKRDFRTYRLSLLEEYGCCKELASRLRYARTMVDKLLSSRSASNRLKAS

T1 sequence (P53350 whole entry, the tested form may be a part): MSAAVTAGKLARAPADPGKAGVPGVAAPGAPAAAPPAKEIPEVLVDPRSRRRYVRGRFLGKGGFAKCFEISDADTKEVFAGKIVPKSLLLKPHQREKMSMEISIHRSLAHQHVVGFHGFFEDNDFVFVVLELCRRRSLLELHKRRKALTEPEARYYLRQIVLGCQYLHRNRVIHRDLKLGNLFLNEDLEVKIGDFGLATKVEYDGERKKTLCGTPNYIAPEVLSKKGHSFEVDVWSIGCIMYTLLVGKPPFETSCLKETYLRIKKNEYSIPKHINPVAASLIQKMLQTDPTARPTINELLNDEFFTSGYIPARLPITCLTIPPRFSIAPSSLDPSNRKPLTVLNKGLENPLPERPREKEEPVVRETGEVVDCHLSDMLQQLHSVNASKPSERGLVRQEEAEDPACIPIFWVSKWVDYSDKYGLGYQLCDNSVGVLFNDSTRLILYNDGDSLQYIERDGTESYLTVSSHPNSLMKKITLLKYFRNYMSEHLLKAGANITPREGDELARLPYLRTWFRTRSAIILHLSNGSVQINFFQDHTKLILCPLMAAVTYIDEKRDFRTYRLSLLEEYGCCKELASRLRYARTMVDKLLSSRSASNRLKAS

What does the source list for `CC[C@@H]1C(=O)N(C)c2cnc(Nc3ccc(C(=O)NC4CCN(C)CC4)cc3OC)nc2N1C1CCCC1` [BI2536, reference compound]?
GI50 (HCT116 wt): 8.25 nM; acquisition of drug resistance (HCT116 KRAS G13D cells): readily acquire resistance; GI50 [1]: 30.9 nM

With `COc1cc2c(Oc3ccc(NC(=O)C4(C(=O)Nc5ccc(F)cc5)CC4)cc3F)ccnc2cc1OCCCN1CCOCC1` [Foretinib] as the molecule, how does the EC50 (Panc-1; Homo sapiens) read?
Its EC50 is 2600 ± 1040 nM.

How did the “EC50, mitotic index assay” value (HeLa cells; HeLa cells treated for 16 hr, Figure 5B) turn out when `Cc1cc(Cl)ccc1-n1c(CCC(=O)N(C)C)ccc1-c1ccc(Br)cc1` [PB114] was run?
Its value is “inactive”.

What about the “thermal stability of NanoLuc-PLK1” value [2] of the same molecule?
Its value is “less active”.

And the “thermal stability of NanoLuc-PLK4” value [3]?
Its value is “less active”.

How did the EC50 (Panc-1) turn out when `O=C1NC(=O)C(c2cn3c4c(cccc24)CCC3)C1c1c[nH]c2ccccc12` (centres unmarked) [Tivatinib] was run?
The EC50 was 1200 ± 1030 nM.

Which EC50 (HeLa cells) does the source give for `CN(C)CCNC(=O)c1cccc(-c2ccc(-c3ccc(Br)cc3)n2-c2ccccc2C(F)(F)F)c1` [compound 4] here?
Its EC50 is 580 nM.

For `CN(C)CCNC(=O)c1ccc(-c2ccc(-c3ccc(Br)cc3)n2-c2ccccc2C(F)(F)F)cc1` [compound 5], which EC50 (HeLa cells) is on record?
The EC50 was 360 nM.

B1: TAMRA-labelled consensus PLK1 PBD binding phosphopeptide, 5-TAMRA-MAGPMQS(pThreonine)PLMGAKK-acid (peptide)
peptide: MAGPMQSTPLMGAKK
modifications: not fully specified; 5-TAMRA on the N-terminus; phosphothreonine (pThreonine) after MAGPMQS, residue 8 of the letters; C-terminal acid
notes: also called TAMRA-labeled substrate peptide
Does B1 bind [4]?
Result: binds
